According to the NIST ThermoML archive (doi:10.1016/j.tca.2019.01.031):

Experiments:
[1] = molar heat capacity at constant pressure; conditions: 101.33 kPa, Crystal, DSC
[2] = 298 K; 101.33 kPa; Crystal; X-ray diffraction
[3] = molar heat capacity at constant pressure; xn = mol fraction of the nth substance listed; conditions: 101.33 kPa, Crystal, DSC
[4] = xn = mol fraction of the nth substance listed; conditions: 298 K, 101.33 kPa, Crystal, X-ray diffraction

O=P([O-])([O-])[O-].[La+3] [lanthanum orthophosphate]
[1]
Conditions	molar heat capacity at constant pressure [J/K/mol]
298 K	97.5
300 K	98
350 K	107.3
400 K	114.3
450 K	120
500 K	124.9
550 K	129.3
600 K	133.2
650 K	136.9
700 K	140.4
750 K	143.8
800 K	147.1

Conditions	mass density [kg/m3]
[2]	5063

O=P([O-])([O-])[O-].[La+3] [lanthanum orthophosphate] + O=P([O-])([O-])[O-].O=P([O-])([O-])[O-].[Sr+2].[Th+4]
[3], x1 = 1
Conditions	molar heat capacity at constant pressure [J/K/mol]
298 K	97.5
300 K	98
350 K	107.3
400 K	114.3
450 K	120
500 K	124.9
550 K	129.3
600 K	133.2
650 K	136.9
700 K	140.4
750 K	143.8
800 K	147.1

Conditions	mass density [kg/m3]
[4], x1 = 1	5063

O=P([O-])([O-])[O-].O=P([O-])([O-])[O-].[Sr+2].[Th+4] [strontium thorium(IV) phosphate]
[1]
Conditions	molar heat capacity at constant pressure [J/K/mol]
298 K	177.6
300 K	178.6
350 K	197.2
400 K	210.2
450 K	220
500 K	227.8
550 K	234.2
600 K	239.6
650 K	244.4
700 K	248.8
750 K	252.8
800 K	256.6

Conditions	mass density [kg/m3]
[2]	5619

O=P([O-])([O-])[O-].O=P([O-])([O-])[O-].[Sr+2].[Th+4] [strontium thorium(IV) phosphate] + O=P([O-])([O-])[O-].[La+3]
molar heat capacity at constant pressure [J/K/mol], [3]
Conditions	x2 = 0	x2 = 0.333	x2 = 0.571	x2 = 0.75	x2 = 0.889
298 K	177.6	172.2	148.6	130.3	117
300 K	178.6	172.9	149.2	130.6	117.4
350 K	197.2	186.9	158.5	139.5	127.5
400 K	210.2	197.9	166.3	146.8	135.2
450 K	220	207.2	173.1	153.1	141.5
500 K	227.8	215.5	179.1	158.8	147.1
550 K	234.2	223.2	184.8	164	152.1
600 K	239.6	230.4	190.3	169.1	156.8
650 K	244.4	237.2	195.5	173.9	161.1
700 K	248.8	243.9	200.6	178.6	165.3
750 K	252.8	250.2	205.6	183.3	169.3
800 K	256.6	256.6	210.6	187.8	173.2

[4]
Conditions	mass density [kg/m3]
x2 = 0	5619
x2 = 0.333	5505
x2 = 0.571	5395
x2 = 0.75	5295
x2 = 0.889	5203

[O-2].[O-2].[Zr+4] [zirconium oxide]
[1]
Conditions	molar heat capacity at constant pressure [J/K/mol]
313 K	56.9
323 K	57.7
333 K	58.6
343 K	59.3
353 K	60
363 K	60.7
373 K	61.4
383 K	61.9
393 K	62.5
403 K	63
413 K	63.6
423 K	64
433 K	64.5
443 K	64.9
453 K	65.4
463 K	65.8
473 K	66.2
483 K	66.6
493 K	66.9
503 K	67.3
513 K	67.6
523 K	68
533 K	68.3
543 K	68.6
553 K	68.9
563 K	69.2
573 K	69.5
583 K	69.8
593 K	70.1
603 K	70.4
613 K	70.6
623 K	70.9
633 K	71.2
643 K	71.4
653 K	71.7
663 K	71.9
673 K	72.2
683 K	72.4
693 K	72.7
703 K	72.9
713 K	73.1
723 K	73.4
733 K	73.6
743 K	73.8
753 K	74.1
763 K	74.3
773 K	74.5
783 K	74.7
793 K	74.9
800 K	75.1
